Results published in EP1242382B1, “TRICYCLIC PROTEIN KINASE INHIBITORS” (Wyeth, priority 1999, dated 2001).
Converted amounts (≈) assume the structure as drawn.

Assays:
SK-BR3 = experiment: Inhibition of cancer cell growth as measured by cell number (Sulforhodamine B); format: cell-based; details: Homo sapiens, SK-BR-3; 48 hours exposure
Protocol: (§1) Human tumor cell lines are plated in 96-well plates (250 µl/well, 1-6 x 10^4 cells/ml) in RPMI 1640 medium, containing 5% FBS (Fetal Bovine Serum). Twenty four hours after plating, test compounds are added at various concentrations. After 48 hours exposure to test compounds, cells are fixed with trichloroacetic acid, and stained with Sulforhodamine B. After washing with trichloroacetic acid, bound dye is solubilized in 10 mM Tris base and optical density is determined using plate reader. Under conditions of the assay the optical density is proportional to the number of cells in the well. […] The test procedure is described in detail by Philip Skehan et. al, J. Natl. Canc. Inst., 82, 1107-1112 (1990). […] Information about some of the cell lines used in these test procedures is available from the American Type Tissue Collection: Cell Lines and Hybridomas, 1994 Reference Guide, 8th Edition.

SW620 = experiment: as above; format: cell-based; details: Homo sapiens, SW-620; 48 hours exposure
Protocol: as §1

A431 = experiment: as above; format: cell-based; details: Homo sapiens, A-431; 48 hours exposure
Protocol: as §1

MDA-MB-435 = experiment: as above; format: cell-based; details: Homo sapiens, 48 hours exposure
Protocol: as §1

[1] = target: T1, EGF-R Kinase (recombinant enzyme) (Homo sapiens, UniProt P00533); experiment: Inhibition of Epidermal Growth Factor Receptor Kinase (EGF-R) using recombinant enzyme; format: biochemical; details: RR-SRC peptide substrate, (a) = average of two tests
T1 construct: EGFR cDNA encoding amino acids 645 - 1186 preceded by Met-Ala-(His)6; made in house; host or cells: Sf9 insect cells, recombinant baculovirus vHcEGFR52
Protocol: Representative test compounds are evaluated in a standard pharmacological test procedure to measure their ability to inhibit the phosphorylation of the tyrosine residue of a peptide substrate catalyzed by the enzyme epidermal growth factor receptor kinase. […] The enzyme used in this assay is the His-tagged cytoplasmic domain of EGFR. […] Sf9 cells in 100 mm plates are infected at a multiplicity of infection of 10 pfu/cell and cells are harvested 48 h post infection. A cytoplasmic extract is prepared using 1% Triton X-100 and applied to Ni-NTA column. After washing the column with 20 mM imidazole, HcEGFR is eluted with 250 mM imidazole (in 50 mM Na2HPO4, pH 8.0, 300 mM NaCl). Fractions collected are dialyzed against 10 mM HEPES, pH 7.0, 50 mM NaCl, 10% glycerol, 1ug/mL antipain and leupeptin and 0.1 mM Pefabloc SC. The protein is frozen in dry ice/methanol and stored -70°C.
Test compounds are made into 10 mg/mL stock solutions in 100% dimethylsulfoxide (DMSO). Prior to experiment, stock solutions are diluted to 500 uM with 100% DMSO and then serially diluted to the desired concentration with HEPES buffer (30 mM HEPES pH 7.4).
For the enzyme reaction, 10 uL of each inhibitor (at various concentrations) are added to each well of a 96-well plate. To this is added 3 uL of enzyme (1:10 dilution in 10mM HEPES, pH 7.4 for final conc. of 1:120). This is allowed to sit for 10 min on ice and is followed by the addition of 5 ul peptide (80 uM final conc.), 10ul of 4X Buffer containing 50 mM HEPES (pH 7.4), 200 mM Na3VO4, 40mM MnCl2, 80 uM ATP, 0.25 uL ^33P-ATP (>2500 Ci/mmol; Amersham) and 12 uL H2O. The reaction is allowed to run for 90 min at room temperature and is followed by spotting the entire volume onto precut P81 filter papers. The filter discs are washed 2X with 0.5% phosphoric acid and radioactivity is measured using a liquid scintillation counter.
The % inhibition of the test compound is determined for at least three different concentrations and the IC50 value is evaluated from the dose response curve. […] CPM(control) is in units of counts per minute and is a number expressing the amount of radiolabled ATP (γ-^33P) incorporated into the RR-SRC peptide substrate by the enzyme after 90 minutes at room temperature in the absence of test compound as measured by liquid scintillation counting. The CPM values are corrected for the background counts produced by ATP in the absence of the enzymatic reaction.

T1 sequence (P00533 669-1210): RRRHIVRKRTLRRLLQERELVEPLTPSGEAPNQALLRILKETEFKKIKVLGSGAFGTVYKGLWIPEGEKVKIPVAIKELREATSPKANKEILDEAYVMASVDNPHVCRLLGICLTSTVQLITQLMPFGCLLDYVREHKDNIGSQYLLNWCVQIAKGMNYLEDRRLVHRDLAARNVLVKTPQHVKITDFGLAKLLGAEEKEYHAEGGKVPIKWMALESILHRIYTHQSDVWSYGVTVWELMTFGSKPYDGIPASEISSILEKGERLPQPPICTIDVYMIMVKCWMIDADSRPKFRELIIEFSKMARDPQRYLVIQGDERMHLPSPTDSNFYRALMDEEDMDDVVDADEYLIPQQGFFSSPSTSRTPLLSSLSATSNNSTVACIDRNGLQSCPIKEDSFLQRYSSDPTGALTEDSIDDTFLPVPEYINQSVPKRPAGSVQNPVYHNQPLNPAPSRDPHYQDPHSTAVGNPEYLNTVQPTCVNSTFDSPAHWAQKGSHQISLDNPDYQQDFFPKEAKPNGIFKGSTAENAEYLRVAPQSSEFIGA

- IC50 (SK-BR3): 3.5 mg/L (≈ 5.88 µM)
- IC50 (SW620): 11.6 mg/L (≈ 19.5 µM)
- IC50 (A431): 4.7 mg/L (≈ 7.9 µM)
- IC50 (MDA-MB-435): 33.5 mg/L (≈ 56.3 µM)
- IC50 [1]: 5.3 nM
SMILES: COc1cc2cc3c(Nc4ccc(OCc5ccccc5)c(Cl)c4)c(C#N)cnc3cc2cc1OCCN1CCOCC1 [Example 218, 4-(4-Benzyloxy-3-chlorophenylamino)-7-methoxy-8-(2-morpholin-4-yl-ethoxy)benzo[g]quinoline-3-carbonitrile]
